Counter-ions that a name gives are not always drawn.
How the values were obtained:
[1] = system: central effects of 5-hydroxytryptophan; test: Potentiation of the central effects of 5-hydroxytryptophan (5-HTP); type: in vivo; details: Mus musculus, ip; Swiss mice, I.P., 30 minutes before 300 mg/kg 5-HTP I.P.; observed 30 min later for 1 min; read-out: Potentiation of the 5-HTP ED50 DE50
Experimental: This potentiation objectifying the axonal blocking of the reabsorption of the seratonin at the serotoninergic nerve ends was studied by the method described by T. M. Pugsley and […] The mice are observed 30 min later, for 1 min, during which the following sterotyped movements are classified: extension of the hind paws, trembling, excitement, head shaking.

[2] = Acute oral toxicity, lethal doses 50 (LD50); details: mouse, in vivo

SMILES | ED50 [1] [mg/kg] | LD50 [2] [mg/kg]
O=c1c2ccccc2nnn1CCCN1CCN(c2cccc(Cl)c2)CC1 [Example 1, [[(chloro-3 phenyl)-4 piperazinyl-1]-3 propyl]-3-3H-benzotriazine-1,2,3 one-4, hydrochloride] | 3 | > 3200
O=c1c2ccccc2nnn1CCCN1CCN(c2ccccc2Cl)CC1 [Example 6, [[(Chloro-2 phenyl-4 piperazinyl-1]-3 propyl]3-3H-benzotriazine-1,2,3 one 4, hydrochloride] | 12 | 
Cc1ccccc1N1CCN(CCCn2nnc3ccccc3c2=O)CC1 [Example 9, [[(Methyl-2 phenyl)-4 piperazinyl-1]-3 propyl]-3-3H-benzotriazine-1,2,3 one-4 hydrochloride] | 5 | 
O=c1c2ccccc2nnn1CCCN1CCN(c2cccc(F)c2)CC1 [Example 10, [[(Fluoro-3phenyl)-4 piperazinyl-1]-3 propyl]-3H-benzotriazine-1,2,3 one-4, hydrochloride] | 14 | 1500
O=c1c2ccccc2nnn1CCCN1CCN(c2ccccc2)CC1 [Example 11, [(Phenyl-4 piperazinyl-1)-3 propyl]-3-3H-benzotriazine-1,2,3 one-4 hydrochloride] | 8 | 1000
COc1cccc(N2CCN(CCCn3nnc4ccccc4c3=O)CC2)c1 [Example 15, [[(Methoxy-3 phenyl)-4 piperazinyl-1]-3 propyl]-3-3H-benzotriazine-1,2,3 one-4] | 9 | 
COc1ccc(N2CCN(CCCn3nnc4ccccc4c3=O)CC2)cc1 [Example 16, [[(Methoxy-4 phenyl)-4 piperazinyl-1]-3propyl]-3-3H-benzotriazine-1,2,3 one-4] | 11 | 
O=c1c2ccc(Cl)cc2nnn1CCCN1CCN(c2cccc(Cl)c2)CC1 [Example 19, Chloro-7 [[(chloro-3 phenyl)-4 piperazinyl-1]-3 propyl]-3-3H-benzotriazine-1,2,3 one-4 hydrochloride] | 10 | 
Cc1ccc2nnn(CCCN3CCN(c4cccc(Cl)c4)CC3)c(=O)c2c1 [Example 20, [[(Chloro-3 phenyl)-1 piperazinyl-1]-3 propyl]-3 methyl-6-3H-benzotriazine-1,2,3 one-4, hydrochloride] | 8 | > 3200
O=c1c2ccsc2nnn1CCCN1CCN(c2cccc(Cl)c2)CC1 [Example 23, [[(Chloro-3 phenyl)-4-piperazinyl-1]3 propyl]-3-3H-thieno[2,3-d]triazine-1,2,3 one-4 hydrochloride] | 3 | 1060
O=c1c2ccccc2nnn1CCCN1CCN(c2ccc(F)c(Cl)c2)CC1 [Example 27, [[(Chloro-3 fluoro-4 phenyl)-4 piperazinyl-1]-3 propyl]-3-3H-benzotriazine-1,2,3 one-4 hydrochloride] | 8 | 
O=c1c2cc(Cl)ccc2nnn1CCCN1CCN(c2ccccc2)CC1 [Example 28, Chloro-6[(phenyl-4 piperazinyl-1)-3 propyl]-3-3H-benzotriazine-1,2,3 one-4 dihyrochloride] | 5 | 
COc1ccc(N2CCN(CCCn3nnc4ccccc4c3=O)CC2)cc1OC [Example 29, [[(Dimethoxy-3,4 phenyl)-4 piperazinyl-1]-3 propyl]-3-3H-benzotriazine-1,2,3 one-4 dihydrochloride] | 12 | 
Cl.O=c1n(CCCN2CCN(c3cccc(Cl)c3)CC2)nc2ccccn12 [Trazodone Hydrochloride, 2-[3-[4-(3-chlorophenyl)-1-piperazinyl]propyl]-1,2,4-triazolo[4,3-a]pyridin-3 (2H)-one hydrochloride, reference compound] |  | 650
